The pIC50 is the IC50 on a negative log10 scale, so that one unit is a factor of ten. A low value points to a large IC50.

pIC50: −log10 of the molar value. Values after ≈ are worked out from the molar mass of the structure shown.

The values below come from patent US5506262A, “Cholesterol lowering compounds” (Merck & Co., Inc., priority 1993, dated 1996).

One assay deals with Crypt. neoformans MY1051. Nature of the assay: Antifungal MIC, microtiter dilution assay. Format: cell-based. Particulars: Cryptococcus neoformans, 24 to 48 hours, 35° C., read-out: Minimum Inhibitory Concentration. Here is the method:
(§1) The compounds are particularly active towards filamentous fungi and yeasts including Candida albicans and Cryptococcus neoformans. The sensitivity of filamentous fungi and yeast was determined using inhibitor dilution assays in microtiter format. The compounds were dissolved in DMSO at 2 mg/ml and serially diluted in 0.1M phosphate buffer, pH 7.0 in the microtiter dish from 100 to 0.006 μg/ml. A standardized spore suspension for testing the filamentous fungi was prepared by inoculating Antibiotic Medium #3 containing 1.5% agar with spores such that 1.5×10^3 colony forming units were added per well. The microtiter wells were filled with 50 μl of buffer containing compound and 50 μl of inoculated medium.
(§2) The sensitivity of yeasts was determined by inoculating yeast nitrogen base containing 1% dextrose (YNB/G) with aliquots of an overnight yeast culture grown in Yeast Morphology (YM) media at 35° C. and diluting in YNB/G to yield a final concentration of 1.5-7.5×10^3 colony forming units/well. To test the sensitivity of yeast, compound was solubilized in 10 percent aqueous DMSO at 2.56 mg/ml. The compound was diluted serially in YNB/G from 128 to 0.06 μg/ml and further diluted 1:10 in YNB/G. The wells were filled with 150 μl of media containing drug. […] Representative of the antifungal activity are the minimum inhibitory concentration data shown below for representative compounds from the various embodiments and classes described hereinabove.

The subject of the next assay is C. tropicalis MY1012. The experiment in a line: Antifungal MIC, microtiter dilution assay. Particulars: Candida tropicalis, 24 to 48 hours, 35° C., read-out: Minimum Inhibitory Concentration. Format: cell-based. Here is the method: as §1, §2
For a further assay, the system named is Aspergillus flavus MF383. The experiment in a line: Antifungal MIC, microtiter dilution assay. Format: cell-based. Particulars: 42 hours, 28° C., read-out: Minimum Inhibitory Concentration. The method, then: as §1, §2
Another assay relates to Candida albicans MY1055. Nature of the assay: Antifungal MIC, microtiter dilution assay. The settings on record: 24 to 48 hours, 35° C., read-out: Minimum Inhibitory Concentration. Format: cell-based. The method, then:
as §1, §2

Another assay concerns C. parapsilosis MY1010. The experiment in a line: Antifungal MIC, microtiter dilution assay. The class given is cell-based. Particulars: Lodderomyces parapsilosis, 24 to 48 hours, 35° C., read-out: Minimum Inhibitory Concentration. The method, then:
as §1, §2

Assay [1] concerns the target T1, Farnesyl-protein transferase (Ftase) (Bos taurus, UniProt P29702+P49355).
T1 construct: Farnesyl-protein transferase (Ftase) from bovine brain was chromatographed on DEAE-Sephacel; from tissue; host or cells: bovine brain, partially purified (DEAE-Sephacel, N-octyl agarose, mono Q)
Nature of the assay: RASIT ASSAY I: inhibition of Ras farnesylation in vitro. Format: biochemical, bovine. Particulars: Ras-CVLS 3.5 μM, 0.25 μM [3H]FPP. Here is the method: (§3) The intrinsic farnesyl-protein transferase (FTase) activity of representative compounds of this invention was measured by the assays described below:
Farnesyl-protein transferase (Ftase) from bovine brain was chromatographed on DEAE-Sephacel (Pharmacia, 0-0.8M NaCl gradient elution), N-octyl agarose (Sigma, 0-0.6M Nacl gradient elution), and a mono Q HPLC column (Pharmacia, 0-0.3M NaCl gradient). Ras-CVLS at 3.5 μM, 0.25 μM [^3 H]FPP, and the indicated compounds were incubated with this partially purified enzyme preparation. The Ftase data presented below is a measurement of the ability of the test compound to inhibit Ras farnesylation in vitro.
(§4) Table 8 lists IC50 data which is representative of the intrinsic Ras inhibitory activity of the compounds of this invention. Data of representative compounds from each embodiment and class of the invention is provided. When an inhibitory value is not provided for a given assay, the compound was not tested in that protocol.

Assay [2] deals with T1, Farnesyl-protein transferase (Ftase). The experiment in a line: RASIT ASSAY II: inhibition of Ras farnesylation in vitro. Particulars: Ras-CVLS 1.0 μM, 0.5 μM [3H]FPP. Format: biochemical, bovine. The method, then:
as §3
Farnesyl-protein transferase (Ftase) from bovine brain was chromatographed on DEAE-Sephacel (Pharmacia, 0-0.8M NaCl gradient elution), N-octyl agarose (Sigma, 0-0.6M Nacl gradient elution), and a mono Q HPLC column (Pharmacia, 0-0.3M NaCl gradient). Ras-CVLS at 1.0 μM, 0.5 μM [^3 H]FPP, and the indicated compounds were incubated with this partially purified enzyme preparation. The Ftase data presented below is a measurement of the ability of the test compound to inhibit Ras farnesylation in vitro.
as §4

Take `C=C(CC[C@]12O[C@H](C(=O)O)[C@@](O)(C(=O)O)[C@](C(=O)O)(O1)[C@H](OC(=O)/C=C/[C@@H](C)C[C@@H](C)CC)[C@H]2OC)[C@@H](OC(C)=O)[C@H](C)Cc1ccccc1` [5n']: the MIC with Crypt. neoformans MY1051 turned out to be 1 mg/L (≈ 1.42 µM); with C. tropicalis MY1012, 1 mg/L (≈ 1.42 µM); with Aspergillus flavus MF383, 4 mg/L (≈ 5.68 µM); with Candida albicans MY1055 it was 4 mg/L (≈ 5.68 µM); in the assay on C. parapsilosis MY1010, 16 mg/L (≈ 22.7 µM). This compound gave a pIC50 in assay [1] of 5.40.

Consider `C=C(CC[C@]12O[C@H](C(=O)O)[C@@](O)(C(=O)O)[C@](C(=O)O)(O1)[C@H](OCCCCCCCCCCOc1ccc(OC)c(OC)c1)[C@H]2O)[C@@H](OC(C)=O)[C@H](C)Cc1ccccc1` [5q"'], for which the MIC with Crypt. neoformans MY1051 turned out to be 0.25 mg/L (≈ 0.301 µM); in the assay with C. tropicalis MY1012, 128 mg/L (≈ 154 µM); with Aspergillus flavus MF383 it was 1 mg/L (≈ 1.2 µM); with Candida albicans MY1055 it was 8 mg/L (≈ 9.63 µM); in the assay with C. parapsilosis MY1010 it was 1 mg/L (≈ 1.2 µM).

For `C=C(CC[C@]12O[C@H](C(=O)O)[C@@](O)(C(=O)O)[C@](C(=O)O)(O1)[C@H](OC(=O)NCc1ccccc1)[C@H]2O)[C@@H](OC(C)=O)[C@H](C)Cc1ccccc1` [Compound 5s], the MIC with Crypt. neoformans MY1051 is 32 mg/L (≈ 47.6 µM); with C. tropicalis MY1012, more than 128 mg/L; in the assay on Candida albicans MY1055, 1 mg/L (≈ 1.49 µM); in the assay with C. parapsilosis MY1010, more than 128 mg/L.

On to `C=C(CC[C@]12O[C@H](C(=O)O)[C@@](O)(C(=O)O)[C@](C(=O)O)(O1)[C@H](OC(=O)Nc1ccc(-c3ccccc3)cc1)[C@H]2O)[C@@H](OC(C)=O)[C@H](C)Cc1ccccc1` [Compound 5t], for which the MIC with Crypt. neoformans MY1051 was more than 128 mg/L; in the assay on C. tropicalis MY1012, 0.5 mg/L (≈ 0.681 µM); in the assay with Aspergillus flavus MF383 it was 0.5 mg/L (≈ 0.681 µM); in the assay with Candida albicans MY1055 it was 8 mg/L (≈ 10.9 µM); in the assay on C. parapsilosis MY1010, more than 128 mg/L.

As for `C=C(CC[C@]12O[C@H](C(=O)O)[C@@](O)(C(=O)O)[C@](C(=O)O)(O1)[C@H](OC(=O)NCCCCCCCCCCCOc1ccccc1)[C@H]2O)[C@@H](OC(C)=O)[C@H](C)Cc1ccccc1` [Compound 5u], the pIC50 was 7.57 in assay [2] and 6.30 in assay [1].

On to `C=C(CC[C@]12O[C@H](C(=O)O)[C@@](O)(C(=O)O)[C@](C(=O)O)(O1)[C@H](OC(=O)OCCCCCCCCCCCOc1ccccc1)[C@H]2O)[C@@H](OC(C)=O)[C@H](C)Cc1ccccc1` [Compound 5y], for which the pIC50 in assay [2] was 7.57; in assay [1], 6.30.

On to `C=C(CC[C@]12O[C@H](C(=O)O)[C@@](O)(C(=O)O)[C@](C(=O)O)(O1)[C@H](OC(=O)/C=C/[C@@H](C)C[C@@H](C)CC)[C@H]2O)[C@@H](OC(=O)CCC)[C@H](C)Cc1ccccc1` [Compound 7b, IA-Cl(4')-Butanoyl tri-acid], for which the MIC came out at 0.5 mg/L (≈ 0.696 µM) in the assay on Crypt. neoformans MY1051; 2 mg/L (≈ 2.78 µM) in the assay on C. tropicalis MY1012; 2 mg/L (≈ 2.78 µM) in the assay on Aspergillus flavus MF383; 2 mg/L (≈ 2.78 µM) in the assay on Candida albicans MY1055; 2 mg/L (≈ 2.78 µM) with C. parapsilosis MY1010.

Take `C=C(CC[C@]12O[C@H](C(=O)O)[C@@](O)(C(=O)O)[C@](C(=O)O)(O1)[C@H](OC(=O)/C=C/[C@@H](C)C[C@@H](C)CC)[C@H]2O)[C@@H](OC(=O)c1ccccc1)[C@H](C)Cc1ccccc1` [Compound 7d]: the pIC50 in assay [2] was 7.28; in assay [1] it was 5.77.

Regarding `C=C(CC[C@]12O[C@H](C(N)=O)[C@@](O)(C(=O)O)[C@](C(=O)O)(O1)[C@H](OC(=O)/C=C/[C@@H](C)C[C@@H](C)CC)[C@H]2O)[C@@H](OC(C)=O)[C@H](C)Cc1ccccc1` [Compound 12a, IA-3-carboxamide], the MIC amounted to 1 mg/L (≈ 1.45 µM) with Crypt. neoformans MY1051; 2 mg/L (≈ 2.9 µM) in the assay on C. tropicalis MY1012; 2 mg/L (≈ 2.9 µM) in the assay on Aspergillus flavus MF383; 8 mg/L (≈ 11.6 µM) in the assay on Candida albicans MY1055; 8 mg/L (≈ 11.6 µM) in the assay on C. parapsilosis MY1010.

For the compound `C=C(CC[C@]12O[C@H](C(=O)Nc3ccncn3)[C@@](O)(C(=O)O)[C@](C(=O)O)(O1)[C@H](OC(=O)/C=C/[C@@H](C)C[C@@H](C)CC)[C@H]2O)[C@@H](OC(C)=O)[C@H](C)Cc1ccccc1` [Compound 12n, IA-3-(4-amidopyrimidine)], the MIC in the assay on Crypt. neoformans MY1051 turned out to be 0.25 mg/L (≈ 0.326 µM); in the assay with C. tropicalis MY1012, 8 mg/L (≈ 10.4 µM); in the assay with Aspergillus flavus MF383, 2 mg/L (≈ 2.6 µM); in the assay on Candida albicans MY1055, 16 mg/L (≈ 20.8 µM); in the assay with C. parapsilosis MY1010, 32 mg/L (≈ 41.7 µM).

For the compound `CC[C@H](C)C[C@H](C)CCC(=O)O[C@@H]1[C@@H](O)[C@@]2(CCC(C)[C@@H](OC(C)=O)[C@H](C)Cc3ccccc3)O[C@H](C(=O)O)[C@@](O)(C(=O)O)[C@]1(C(=O)O)O2` (stereo partly drawn) [Compound 24b, (1S,3S,4S,5R,6R,7R)-1-[(4S)-acetoxy-3,5(R)-dimethyl-6-phenyl]hexyl-4,6,7-trihydroxy-6-O-(4(S),6(S)-dimethyl-2-octanoyl)-2,8-dioxabicyclo-[3,2,1]octane-3,4,5-tricarboxylic acid], the pIC50 in assay [1] was 5.89.

With `CC[C@H](C)C[C@H](C)CCC(=O)O[C@@H]1[C@@H](O)[C@@]2(CCC(C)C[C@H](C)Cc3ccccc3)O[C@H](C(=O)O)[C@@](O)(C(=O)O)[C@]1(C(=O)O)O2` (stereo partly drawn) [Compound 25b, (1S,3S,4S, 5R,6R,7R)-1-[3,5(R)-dimethyl-6-phenyl]hexyl-4,6,7trihydroxy-6-O-(4(S),6(S)-dimethyl-2-octanoyl)-2,8-dioxabicyclo[3.2.1]octane-3,4,5-tricarboxylic acid], the MIC in the assay on Crypt. neoformans MY1051 was 2 mg/L (≈ 3.14 µM); in the assay on C. tropicalis MY1012, 8 mg/L (≈ 12.6 µM); in the assay on Aspergillus flavus MF383, 4 mg/L (≈ 6.28 µM); with Candida albicans MY1055 it was 8 mg/L (≈ 12.6 µM); with C. parapsilosis MY1010, more than 128 mg/L.

In the case of `CC[C@H](C)C[C@H](C)/C=C/C(=O)O[C@@H]1[C@@H](O)[C@@]2(CCCOC(=O)CCCc3ccccc3)O[C@H](C(=O)O)[C@@](O)(C(=O)O)[C@]1(C(=O)O)O2` [Compound 39e, 39-4-phenylbutyrate ester], the pIC50 is 7.72 in assay [2] and 6.92 in assay [1].
